Experimental data as given in article PMC10663540, “Structure-based discovery of dual pathway inhibitors for SARS-CoV-2 entry” (Nature Communications, 2023).
Several values for one entry are separate records, joined by “and”; a condition that tells them apart may be missing. Identical values can stand only once. Like-named read-outs stand apart in the source and are kept apart here.

What was measured:
[1] = biological target: T1, human CTSL (Homo sapiens, UniProt P07711); experiment: FRET enzymatic inhibition assay of CTSL (IC50 measurement); assay type: biochemical
T1 construct: made in house
T1 sequence (P07711 114-333): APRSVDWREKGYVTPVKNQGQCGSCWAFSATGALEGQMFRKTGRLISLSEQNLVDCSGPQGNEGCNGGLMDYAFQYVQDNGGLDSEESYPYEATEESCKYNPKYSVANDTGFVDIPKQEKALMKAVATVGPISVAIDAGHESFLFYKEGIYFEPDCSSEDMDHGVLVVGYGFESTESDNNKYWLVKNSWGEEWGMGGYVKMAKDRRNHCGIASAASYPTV

[2] = biological target: T2, human CTSB (Homo sapiens, UniProt P07858); experiment: biochemical
T2 construct: […]; made in house

[3] = tested on: Calu-3 cells; settings: rep1-rep3
[4] = in vitro; settings: human
[5] = 0.0762939 nM, rep1-rep4, 7.62939e-05 µM
[6] = 0.152588 nM, rep1-rep4, 0.000152588 µM
[7] = 0.610352 nM, rep1-rep4, 0.000610352 µM
[8] = 1.2207 nM, rep1-rep4, 0.0012207 µM
[9] = 2.44141 nM, rep1-rep4, 0.00244141 µM
[10] = 4.88281 nM, rep1-rep4, 0.00488281 µM
[11] = 9.76562 nM, rep1-rep4, 0.00976562 µM
[12] = 19.5312 nM, rep1-rep4, 0.0195312 µM
[13] = 39.0625 nM, rep1-rep4, 0.0390625 µM
[14] = 78.125 nM, rep1-rep4, 0.078125 µM
[15] = 156.25 nM, rep1-rep4, 0.15625 µM
[16] = substrate Cbz-Phe-Arg-AMC, pH 5.5, mean ± SD, four replicates

Question: What does the source list for CCOC(=O)C1OC1C(=O)NC(CC(C)C)C(=O)NCCC(C)C (stereo not shown) [E64d]?
Answer: Inhibition: CTSL [1, 5]: 2.24% and 3.63% and 1.98% and 0.98%; Inhibition: CTSL [1, 6]: 2.65% and 3.08% and 2.24% and -1.44%; Inhibition: CTSL [1, 7]: 0.22% and 3.41%; Inhibition: CTSL [1, 8]: 6.37% and 4.18%; Inhibition: CTSL [1, 9]: 4.98% and 7.04% and 0.43% and 3.83%; Inhibition: CTSL [1, 10]: 0.11% and 3.42% and 5.91% and 2.54%; Inhibition: CTSL [1, 11]: 8.11% and 8.13% and 3.91% and 9.27%; inhibition at 0.0195312 µM ([1]; 19.5312 nM, rep1-rep4): 10.1%; Inhibition: CTSL [1, 12]: 17.79% and 9.24% and 15.72%; inhibition at 0.0390625 µM ([1]; 39.0625 nM, rep1-rep4): 26.6%; Inhibition: CTSL [1, 13]: 23.44% and 25.85% and 26.69%; inhibition at 0.078125 µM ([1]; 78.125 nM, rep1-rep4): 45.2%; Inhibition: CTSL [1, 14]: 44.64% and 44.43% and 46.07%; inhibition at 0.15625 µM ([1]; 156.25 nM, rep1-rep4): 72.7%; Inhibition: CTSL [1, 15]: 70.94% and 71.67% and 71.32%; inhibition at 0.3125 µM ([1]; 312.5 nM, rep1-rep4): 93.6%; Inhibition: CTSL ([1]; 312.5 nM, rep1-rep4, 0.3125 µM): 93.64% and 93.89% and 93.96%; inhibition at 0.625 µM ([1]; 625 nM, rep1-rep4): 99.2%; Inhibition: CTSL ([1]; 625 nM, rep1-rep4, 0.625 µM): 99.81% and 99.40% and 99.47%; inhibition at 1.25 µM ([1]; 1250 nM, rep1-rep4): 100%; Inhibition: CTSL ([1]; 1250 nM, rep1-rep4, 1.25 µM): 100.20% and 99.89%; inhibition at 2.5 µM ([1]; 2500 nM, rep1-rep4): 99.2%; Inhibition: CTSL ([1]; 2500 nM, rep1-rep4, 2.5 µM): 100.15% and 100.23% and 99.74%; inhibition at 5 µM ([1]; 5000 nM, rep1-rep4): 99.9%; Inhibition: CTSL ([1]; 5000 nM, rep1-rep4, 5 µM): 100.31% and 99.95%; inhibition at 10 µM ([1]; 10000 nM, rep1-rep4): 100%; Inhibition: CTSL ([1]; 10000 nM, rep1-rep4, 10 µM): 100.02% and 99.97%; IC50 [1, 16]: 0.0889 µM; Inhibition: CTSB [2, 5]: 3.40% and 10.64% and 11.97% and 5.82%; Inhibition: CTSB [2, 8]: -7.91% and 0.42% and 2.07% and 0.65%; inhibition at 0.15625 µM ([2]; 156.25 nM, rep1-rep4): 35.3%; Inhibition: CTSB [2, 15]: 44.31% and 44.26% and 38.99%; inhibition at 0.3125 µM ([2]; 312.5 nM, rep1-rep4): 56.2%; Inhibition: CTSB ([2]; 312.5 nM, rep1-rep4, 0.3125 µM): 62.85% and 55.87% and 62.55%; inhibition at 0.625 µM ([2]; 625 nM, rep1-rep4): 80.1%; Inhibition: CTSB ([2]; 625 nM, rep1-rep4, 0.625 µM): 80.11% and 80.88% and 83.45%; inhibition at 1.25 µM ([2]; 1250 nM, rep1-rep4): 98.7%; Inhibition: CTSB ([2]; 1250 nM, rep1-rep4, 1.25 µM): 92.94% and 89.91% and 97.77%; inhibition at 2.5 µM ([2]; 2500 nM, rep1-rep4): 95.4%; Inhibition: CTSB ([2]; 2500 nM, rep1-rep4, 2.5 µM): 107.12% and 95.70% and 101.34%; inhibition at 5 µM ([2]; 5000 nM, rep1-rep4): 105%; Inhibition: CTSB ([2]; 5000 nM, rep1-rep4, 5 µM): 104.22% and 97.92% and 95.52%; inhibition at 10 µM ([2]; 10000 nM, rep1-rep4): 97.9%; Inhibition: CTSB ([2]; 10000 nM, rep1-rep4, 10 µM): 102.20% and 95.59% and 101.48%; IC50 [2, 16]: 0.244 µM; Cytotoxicity ([3]; 0.017 μM): 7.45% and 7.84% and 8.16%; Cytotoxicity ([3]; 0.05 μM): 11.45% and 12.03% and 11.72%; Cytotoxicity ([3]; 0.15 μM): 9.87% and 10.28% and 10.63%; Cytotoxicity ([3]; 0.46 μM): 7.15% and 7.70% and 8.12%; Cytotoxicity ([3]; 4.1 μM): 1.63% and 2.06% and 2.63%; Cytotoxicity ([3]; 12.3 μM): -0.11% and 0.47% and 0.96%; Cytotoxicity ([3]; 111.1 μM): -4.79% and -4.14% and -3.55%; Cytotoxicity ([3]; 333.3 μM): 12.34% and 13.88% and 14.55%; Cytotoxicity ([3]; 1000 μM): 23.12% and 23.57% and 24.06%; CC50 [4]: > 1000 µM

Question: Which “Inhibition: CTSL” value [1, 5] does the source give for CN1CCN(C(=O)N[C@@H](Cc2ccccc2)C(=O)N[C@H](/C=C/S(=O)(=O)c2ccccc2)CCc2ccccc2)CC1 [K777] here?
Answer: 1.13% and 5.78% and 3.59% and 2.15%

Question: And the inhibition at 0.000152588 µM ([1]; 0.152588 nM, rep1-rep4)?
Answer: 5.42%

Question: What about the “Inhibition: CTSL” value [1, 6] of the same compound?
Answer: 10.09% and 6.36% and 10.80%

Question: What about the inhibition at 0.000610352 µM ([1]; 0.610352 nM, rep1-rep4) of the same compound?
Answer: 9.96%

Question: What about the “Inhibition: CTSL” value [1, 7] of the same compound?
Answer: 11.08% and 11.88% and 12.12%

Question: What about the inhibition at 0.0012207 µM ([1]; 1.2207 nM, rep1-rep4) of the same compound?
Answer: 14.1%

Question: What about the “Inhibition: CTSL” value [1, 8] of the same compound?
Answer: 15.17% and 15.67% and 15.23%

Question: What about the inhibition at 0.00244141 µM ([1]; 2.44141 nM, rep1-rep4) of the same compound?
Answer: 27.1%

Question: And the “Inhibition: CTSL” value [1, 9]?
Answer: 29.89% and 27.84% and 28.16%

Question: And the inhibition at 0.00488281 µM ([1]; 4.88281 nM, rep1-rep4)?
Answer: 46.7%

Question: And the “Inhibition: CTSL” value [1, 10]?
Answer: 49.46% and 47.59% and 48.29%

Question: What about the inhibition at 0.00976562 µM ([1]; 9.76562 nM, rep1-rep4) of the same compound?
Answer: 73.6%

Question: What about the “Inhibition: CTSL” value [1, 11] of the same compound?
Answer: 74.62% and 72.91% and 72.68%

Question: What about the inhibition at 0.0195312 µM ([1]; 19.5312 nM, rep1-rep4) of the same compound?
Answer: 93.2%

Question: What about the “Inhibition: CTSL” value [1, 12] of the same compound?
Answer: 93.40% and 92.49% and 94.07%

Question: What about the inhibition at 0.0390625 µM ([1]; 39.0625 nM, rep1-rep4) of the same compound?
Answer: 99.5%

Question: And the “Inhibition: CTSL” value [1, 13]?
Answer: 98.76% and 99.78% and 99.61%

Question: What about the inhibition at 0.078125 µM ([1]; 78.125 nM, rep1-rep4) of the same compound?
Answer: 100%

Question: What about the “Inhibition: CTSL” value [1, 14] of the same compound?
Answer: 99.93% and 100.35% and 99.32%

Question: And the inhibition at 0.15625 µM ([1]; 156.25 nM, rep1-rep4)?
Answer: 100%

Question: And the “Inhibition: CTSL” value [1, 15]?
Answer: 100.75% and 100.78%

Question: What about the inhibition at 0.3125 µM ([1]; 312.5 nM, rep1-rep4) of the same compound?
Answer: 100%

Question: And the “Inhibition: CTSL” value ([1]; 312.5 nM, rep1-rep4, 0.3125 µM)?
Answer: 100.44% and 100.24% and 99.50%

Question: And the inhibition at 0.625 µM ([1]; 625 nM, rep1-rep4)?
Answer: 100%

Question: What about the “Inhibition: CTSL” value ([1]; 625 nM, rep1-rep4, 0.625 µM) of the same compound?
Answer: 100.05% and 99.89%

Question: And the inhibition at 1.25 µM ([1]; 1250 nM, rep1-rep4)?
Answer: 100%

Question: And the “Inhibition: CTSL” value ([1]; 1250 nM, rep1-rep4, 1.25 µM)?
Answer: 100.44% and 100.07% and 99.92%

Question: What about the inhibition at 2.5 µM ([1]; 2500 nM, rep1-rep4) of the same compound?
Answer: 100%

Question: What about the “Inhibition: CTSL” value ([1]; 2500 nM, rep1-rep4, 2.5 µM) of the same compound?
Answer: 100.03% and 100.38% and 100.68%

Question: What about the inhibition at 5 µM ([1]; 5000 nM, rep1-rep4) of the same compound?
Answer: 100%

Question: What about the “Inhibition: CTSL” value ([1]; 5000 nM, rep1-rep4, 5 µM) of the same compound?
Answer: 100.04% and 100.18% and 100.13%

Question: What about the inhibition at 10 µM ([1]; 10000 nM, rep1-rep4) of the same compound?
Answer: 100%

Question: And the “Inhibition: CTSL” value ([1]; 10000 nM, rep1-rep4, 10 µM)?
Answer: 100.22% and 100.09% and 99.98%

Question: And the Cytotoxicity ([3]; 0.017 μM)?
Answer: 8.99% and 10.05% and 10.29%

Question: What about the Cytotoxicity ([3]; 0.05 μM) of the same compound?
Answer: 20.39% and 20.63% and 20.94%

Question: And the Cytotoxicity ([3]; 0.15 μM)?
Answer: 17.33% and 17.61% and 17.94%

Question: And the Cytotoxicity ([3]; 0.46 μM)?
Answer: 15.43% and 15.73% and 16.02%

Question: What about the Cytotoxicity ([3]; 4.1 μM) of the same compound?
Answer: 16.54% and 16.77% and 16.98%

Question: And the Cytotoxicity ([3]; 12.3 μM)?
Answer: 18.57% and 18.78% and 19.05%

Question: What about the Cytotoxicity ([3]; 37 μM) of the same compound?
Answer: 15.46% and 15.63% and 15.88%

Question: What about the Cytotoxicity ([3]; 111.1 μM) of the same compound?
Answer: 60.74% and 60.66% and 60.71%

Question: What about the Cytotoxicity ([3]; 333.3 μM) of the same compound?
Answer: 97.79% and 97.81%

Question: What about the Cytotoxicity ([3]; 1000 μM) of the same compound?
Answer: 99.56%

Question: What about the CC50 [4] of the same compound?
Answer: 110 µM

Question: For N=C(N)c1ccc2cc(OC(=O)c3ccc(N=C(N)N)cc3)ccc2c1 [Nafamostat], which CC50 [4] is on record?
Answer: 452 µM
